According to patent publication US9951058B2, “Compound, pharmaceutically acceptable salt or optical isomer thereof, method for preparing the same, and pharmaceutical composition for prevention or treatment of viral diseases containing same as active ingredient” (Korea Research Institute of Chemical Technology, priority 2012, dated 2018):
In brackets after ≈: the same amount, converted by molar mass.

Columns and labels:
HRV 14 = assay: Cytopathic effect (CPE) inhibition assay; format: cell-based, human rhinovirus; details: Human rhinovirus sp., HeLa, 72 h, host cell HeLa, 3 days, MEM/2% FBS, MTT assay; read-out: EC50 HRV 14
HRV 21 = assay: Cytopathic effect (CPE) inhibition assay; format: cell-based, human rhinovirus; details: Human rhinovirus sp., 72 h; host cell HeLa, 3 days, MEM/2% FBS, MTT assay; read-out: EC50 HRV 21
HRV 71 = assay: Cytopathic effect (CPE) inhibition assay; format: cell-based, human rhinovirus; details: Human rhinovirus sp., 72 h; host cell HeLa, 3 days, MEM/2% FBS, MTT assay; read-out: EC50 HRV 71
[1] = test system: coxsackievirus B1 (Cox B1); assay: Multicycle cytopathic effect (CPE) reduction assay; format: cell-based; details: Enterovirus B, B1, 72 h, read-out: EC50 CoxB1
[2] = test system: coxsackievirus B3 (Cox B3); assay: Multicycle cytopathic effect (CPE) reduction assay; format: cell-based; details: Enterovirus B, B3, 72 h, read-out: EC50 CoxB3
poliovirus 3 (PV3) = assay: microbe, parasite or virus in culture; format: cell-based; details: Enterovirus C, 72 h, read-out: EC50 PV3
in vitro = details: human
[3] = Cytotoxicity (CC50) in multicycle CPE reduction assay, MTS; details: human

Row | SMILES | EC50 (HRV 14) [µg/mL] | EC50 (HRV 21) [µg/mL] | EC50 (HRV 71) [µg/mL] | EC50 [1] [µg/mL] | EC50 [2] [µg/mL] | EC50 (poliovirus 3 (PV3)) [µg/mL] | CC50 (in vitro) [µg/mL] | CC50 at 3 days [3] [µg/mL]
1 | CC(=O)C(=O)NC12C(=O)c3ccccc3C1(O)Oc1cc(C)c(C)cc12 (stereo not drawn) [Example 14, N-(4b-hydroxy-7,8-dimethyl-10-oxo-9b, 10-dihydro-4bH-indeno[1,2-b]benzofuran-9b-yl)-2-oxo propanamide] | 1.82 (≈ 5.18 µM) | > 8.87 | > 8.87 | 0.015 (≈ 0.0427 µM) | 0.067 (≈ 0.191 µM) | > 8.57 | 8.87 (≈ 25.2 µM) | 8.57 (≈ 24.4 µM)
2 | CC(C)CC(=O)C(=O)NC12C(=O)c3cccc([N+](=O)[O-])c3C1(O)Oc1cc(C(C)C)ccc12 (stereo not drawn) [Example 38, N-(4b hydroxyl-7-isopropyl-4-nitro-10-oxo-4b, 10-dihydro-9bH-indeno[1,2-b]benzofuran-9b-yl)-4-methyl-2-oxo pentanamide] | < 10 | > 10 | > 10 | < 1 | < 1 | < 10 | > 10 | > 10
3 | Cc1cccc(C)c1NC(=O)C(=O)NC12C(=O)c3cccc([N+](=O)[O-])c3C1(O)Oc1cc(C(C)C)ccc12 (stereo not drawn) [Example 26, N1-(2,6-dimethylphenyl)-N2-(4b-hydroxy-7-isopropyl-4-nitro-10-oxo-4b, 10-dihydro-9bH-indeno[1,2-b]benzofuran-9b-yl)oxal amide] | < 10 | > 10 | > 10 | < 10 | < 10 | > 10 | > 10 | > 10
4 | CC(C)c1ccc2c(c1)OC1(O)c3c(cccc3[N+](=O)[O-])C(=O)C21NC(=O)C(=O)CCc1ccccc1 (stereo not drawn) [Example 53, N-(4b-hydroxy-7-isopropyl-4-nitro-10-oxo-4b, 10-dihydro-9bH-indeno[1,2-b]benzofuran-9b-yl)-2-oxo-4-phenyl butanamide] | > 4.8 | > 4.8 | > 4.8 | < 10 | < 10 | > 10 | 4.8 (≈ 9.59 µM) | > 10
5 | Cc1cc2c(cc1C)C1(NC(=O)C(=O)c3ccccc3)C(=O)c3ccccc3C1(O)O2 (stereo not drawn) [Example 12, N-(4b-hydroxy-7,8-dimethyl-10-oxo-9b, 10-dihydro-4bH-indeno[1,2-b]benzofuran-9b-yl)-2-oxo-2-phenyl acetamide] | 2.08 (≈ 5.03 µM) | > 10 | > 10 | 0.015 (≈ 0.0363 µM) | 0.064 (≈ 0.155 µM) | 9.8 (≈ 23.7 µM) | > 10 | > 10
6 | COc1cc(C(=O)C(=O)NC23C(=O)c4cccc([N+](=O)[O-])c4C2(O)Oc2cc(C(C)C)ccc23)cc(OC)c1OC (stereo not drawn) [Example 58, N-(4b-hydroxy-7-isopropyl-4-nitro-10-oxo-4b, 10-dihydro-9bH-indeno[1,2-b]benzofuran-9b-yl) 2-oxo-2-(3,4,5-trimethoxyphenyl)acetamide] | < 10 | > 10 | > 10 | < 10 | < 10 | > 10 | > 10 | > 10
7 | CCCCCCC(=O)C(=O)NC12C(=O)c3cccc([N+](=O)[O-])c3C1(O)Oc1cc(C(C)C)ccc12 (stereo not drawn) [Example 35, N-(4b-hydroxy-7-isopropyl-4-nitro-10-oxo-4b, 10-dihydro-9bH-indeno[1,2-b]benzofuran-9b-yl)-2-oxo octanamide] | < 10 | > 10 | > 10 | < 1 | < 1 | < 10 | > 10 | > 10
8 | Cc1cc(C)c(C(=O)C(=O)NC23C(=O)c4cccc([N+](=O)[O-])c4C2(O)Oc2cc(C(C)C)ccc23)c(C)c1 (stereo not drawn) [Example 51] | > 10 | > 10 | > 10 | < 10 | < 10 | > 10 | > 10 | > 10
9 | CC(C)c1ccc2c(c1)OC1(O)c3ccccc3C(=O)C21NC(=O)C(=O)CC(=O)c1ccncc1 (stereo not drawn) [Example 42, N-(4b-hydroxy-7-isopropyl-10-oxo-4b, 10-dihydro-9bH-indeno[1,2-b]benzofuran-9b-yl)-2,4-dioxo-4-(pyridyn-4-yl)butanamide] | < 10 | > 10 | > 10 | < 0.1 | < 0.1 | > 10 | > 10 | > 10
10 | CC(C)c1ccc2c(c1)OC1(O)c3c(cccc3[N+](=O)[O-])C(=O)C21NC(=O)C(=O)c1ccccc1 (stereo not drawn) [Example 16, N-(4b-hydroxy-7-isopropyl-4-nitro-10-oxo-9b, 10-dihydro-4bH-indeno[1,2-b]benzofuran-9b-yl)-2-oxo-2-phenyl acetamide] | 1.77 (≈ 3.75 µM) | > 10 | > 10 | 0.078 (≈ 0.165 µM) | 0.33 (≈ 0.698 µM) | 2.13 (≈ 4.51 µM) | > 10 | > 10
11 | CC(C)c1ccc2c(c1)OC1(O)c3ccccc3C(=O)C21NC(=O)C(=O)c1cccs1 (stereo not drawn) [Example 2, N-(4b-hydroxy-7-isopropyl-10-oxo-9b, 10-dihydro-4bH-indeno[1,2-b]benzofuran-9b-yl)-2-oxo-2-(thiopen-2-yl)acetamide] | < 0.1 | > 8.57 | > 8.57 | < 0.01 | < 0.01 | < 1 | 8.57 (≈ 19.8 µM) | 9.02 (≈ 20.8 µM)
12 | CCOC(=O)C(=O)NC12C(=O)c3cccc([N+](=O)[O-])c3C1(O)Oc1cc(C(C)C)ccc12 (stereo not drawn) [Example 33, Ethyl 2-((4b-hydroxy-7-isopropyl-4-nitro-10-oxo-4b, 10-dihydro-9bH-indeno[1,2-b]benzofuran-9b-yl)amino)-2-oxo acetate] | > 10 | > 10 | > 10 | < 10 | < 10 | > 10 | > 10 | > 10
13 | CCC(C)C(=O)C(=O)NC12C(=O)c3ccccc3C1(O)Oc1cc(C(C)C)ccc12 (stereo not drawn) [Example 29, N-(4b-hydroxy-7-isopryl-10-oxo-4b, 10-dihydro-9bH-indeno[1,2-b]benzofuran-9b-yl)-3-methyl-2-oxo pentanamide] | < 1 | > 10 | > 10 | < 0.1 | < 0.1 | < 1 | > 10 | > 10
14 | CC(C)c1ccc2c(c1)OC1(O)c3cccc(N)c3C(=O)C21NC(=O)C(=O)N(C)C (stereo not drawn) [Example 31, N1-(1-amino-4b-hydroxy-7-isopropyl-10-oxo-4b, 10-dihydro-9bH-indeno[1,2-b]benzofuran-9b-yl)-N2, N2-dimethyl oxal amide] | 0.012 (≈ 0.0293 µM) | < 10 | 73 (≈ 178 µM) | < 0.01 | < 0.01 | < 0.1 | > 10 | > 10
15 | CC(=N)NC12C(=O)c3ccccc3C1(O)Oc1cc(C(C)C)ccc12 (stereo not drawn) [Example 60, N-(4b-hydroxy-7-isopropyl-10-oxo-4b, 10-dihydro-9bH-indeno[1,2-b]benzofuran-9b-yl)acetimide amide] | < 10 | > 10 | > 10 | < 1 | < 10 | > 10 | > 10 | > 10
